Calls of active or inactive are those of the source.
What was measured:
[1] = target: Heat shock protein HSP 90-alpha (Homo sapiens, UniProt P07900); format: functional, organism-based
Cysteine protease ATG4B = target: T1, Cysteine protease ATG4B (Homo sapiens, UniProt Q9Y4P1); format: functional;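 note: Fluorescence-based dose-response confirmation assay measuring inhibition of ATG4B activity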
T1 sequence (Q9Y4P1 whole entry): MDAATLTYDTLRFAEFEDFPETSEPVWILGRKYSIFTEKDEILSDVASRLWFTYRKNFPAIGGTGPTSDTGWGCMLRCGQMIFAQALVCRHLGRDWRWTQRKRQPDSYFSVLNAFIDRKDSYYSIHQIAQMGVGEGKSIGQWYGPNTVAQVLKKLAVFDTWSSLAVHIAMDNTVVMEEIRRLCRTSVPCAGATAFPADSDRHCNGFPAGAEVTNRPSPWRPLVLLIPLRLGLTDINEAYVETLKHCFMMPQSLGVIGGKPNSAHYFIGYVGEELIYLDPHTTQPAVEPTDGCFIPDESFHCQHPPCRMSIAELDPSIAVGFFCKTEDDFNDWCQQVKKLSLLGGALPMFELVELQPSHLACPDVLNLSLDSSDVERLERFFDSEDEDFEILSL

Phospholipase A2 = Phospholipase A2 (Homo sapiens, UniProt P04054); format: functional;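 note: confirmatory dose-response counterscreen on phospholipase A2, testing hits that came from an ultra-high-throughput screen for ATG4B inhibitors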
[2] = NIH-3T3 fibroblast cytotoxicity, dose response, cytotoxicity control, cell-based, fluorescence, Alamar Blue, secondary assay (AID 2327); format: functional;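 note: NIH-3T3 mouse fibroblasts cultured with fluconazole at 8 µg/mL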
[3] = C. albicans growth with fluconazole, confirmation, fluorescence, retest (AID 2467); format: functional, cell-based
[4] = target: T2, Corticotropin-releasing factor receptor 2/Corticotropin-releasing factor-binding protein (Homo sapiens, UniProt P24387+Q13324); assay: Dose Response confirmation of uHTS hits for small molecule antagonists of the CRF-binding protein and CRF-R2 receptor complex.; format: functional; settings: read-out: IC50_Mean
T2 sequence (Q13324 whole entry): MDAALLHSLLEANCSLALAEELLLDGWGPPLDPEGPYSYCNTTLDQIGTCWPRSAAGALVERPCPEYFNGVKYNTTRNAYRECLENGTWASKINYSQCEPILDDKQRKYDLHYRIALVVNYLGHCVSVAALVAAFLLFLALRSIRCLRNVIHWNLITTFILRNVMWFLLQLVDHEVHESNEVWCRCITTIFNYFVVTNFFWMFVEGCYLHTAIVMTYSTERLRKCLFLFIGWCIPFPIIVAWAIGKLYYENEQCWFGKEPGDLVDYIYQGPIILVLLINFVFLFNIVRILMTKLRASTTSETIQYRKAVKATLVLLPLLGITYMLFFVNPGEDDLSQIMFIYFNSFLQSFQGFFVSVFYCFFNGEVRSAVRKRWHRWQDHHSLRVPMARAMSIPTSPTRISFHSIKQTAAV
T2 sequence (P24387 whole entry): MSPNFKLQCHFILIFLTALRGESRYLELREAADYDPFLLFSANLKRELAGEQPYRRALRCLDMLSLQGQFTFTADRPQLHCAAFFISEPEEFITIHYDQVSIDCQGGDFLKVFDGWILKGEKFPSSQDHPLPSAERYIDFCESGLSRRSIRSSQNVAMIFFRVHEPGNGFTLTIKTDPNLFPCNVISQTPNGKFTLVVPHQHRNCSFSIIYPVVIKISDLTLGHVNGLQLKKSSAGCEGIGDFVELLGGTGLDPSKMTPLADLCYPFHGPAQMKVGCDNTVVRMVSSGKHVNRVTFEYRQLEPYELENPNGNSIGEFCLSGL

Streptococcus = assay: Group A Streptococcus viability loss, dose response, counter-screen for streptokinase expression inhibitor project, luminescence, BacTiterGlo (AID 1915); format: functional, organism-based;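 note: potency for reduction of bacterial viability or growth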
[5] = tested on: Streptococcus sp. 'group A'; assay: growth inhibition of control SK(-) GAS strain, dose response, counter-screen for streptokinase expression inhibitor project, luminescence, kanamycin, BacTiterGlo, confirmation (AID 1900); format: functional, organism-based
[6] = CRF-BP/CRF-R2 complex antagonists, dose response, cell-based, uHTS hits, 384-well (AID 651639); format: functional, Homo sapiens; settings: read-out: IC50_Mean
Streptokinase A = target: T3, Streptokinase A (Streptococcus pyogenes serotype M1, UniProt P10520); assay: S. pyogenes streptokinase expression inhibitors, potency, dose response, plasminogen activation absorbance, OD405 (AID 1914); format: functional, Streptococcus pyogenes M1 GAS;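 note: secreted streptokinase activity via plasminogen activation per viability signal from cell pellet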
T3 sequence (P10520 whole entry): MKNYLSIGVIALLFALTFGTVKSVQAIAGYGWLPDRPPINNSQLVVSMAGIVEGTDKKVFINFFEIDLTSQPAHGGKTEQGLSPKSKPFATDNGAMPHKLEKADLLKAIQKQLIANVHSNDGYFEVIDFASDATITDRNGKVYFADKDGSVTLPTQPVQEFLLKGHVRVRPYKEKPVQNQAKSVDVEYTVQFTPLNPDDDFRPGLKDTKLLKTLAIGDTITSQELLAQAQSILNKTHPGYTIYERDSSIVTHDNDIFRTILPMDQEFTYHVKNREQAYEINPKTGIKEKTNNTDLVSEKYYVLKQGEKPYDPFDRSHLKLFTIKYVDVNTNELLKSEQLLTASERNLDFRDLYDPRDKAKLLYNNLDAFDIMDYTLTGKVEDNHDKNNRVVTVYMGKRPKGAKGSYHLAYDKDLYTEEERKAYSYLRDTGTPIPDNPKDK

[7] = target: T2, Corticotropin-releasing factor receptor 2/Corticotropin-releasing factor-binding protein; assay: activators of CRF receptor 2 with binding protein – uHTS hits, confirmation (AID 602473); format: functional; settings: read-out: EC50_Mean
[8] = target: T4, Tyrosine-protein phosphatase non-receptor type 7 (Homo sapiens, UniProt P35236); assay: inhibitors of human HePTP phosphatase, […], biochemical, absorbance, leukemia target (AID 521); format: functional
T4 sequence (P35236 whole entry): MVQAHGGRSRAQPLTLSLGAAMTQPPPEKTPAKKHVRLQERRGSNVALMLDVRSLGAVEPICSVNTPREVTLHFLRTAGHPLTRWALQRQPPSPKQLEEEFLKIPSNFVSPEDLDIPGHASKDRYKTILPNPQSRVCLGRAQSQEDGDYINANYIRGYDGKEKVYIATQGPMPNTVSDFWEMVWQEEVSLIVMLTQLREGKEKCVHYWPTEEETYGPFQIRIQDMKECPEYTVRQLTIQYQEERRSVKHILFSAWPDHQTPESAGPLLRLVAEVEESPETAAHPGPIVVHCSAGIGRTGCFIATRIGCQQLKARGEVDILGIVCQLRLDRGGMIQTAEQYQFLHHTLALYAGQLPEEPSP

[9] = target: Disintegrin and metalloproteinase domain-containing protein 17 (Homo sapiens, UniProt P78536); assay: ADAM17 protease inhibitors, dose response, counter-screen for ADAM10 exosite inhibitor project, biochemical, quenched FRET substrate (AID 743253)
P388 = assay: cells; format: functional; settings: Mus musculus
P388/ADR = assay: cells; format: functional; settings: Mus musculus, P388/ADR
SN12K1 = assay: cells; format: functional; settings: Homo sapiens

Sequence of Phospholipase A2 (P04054 whole entry): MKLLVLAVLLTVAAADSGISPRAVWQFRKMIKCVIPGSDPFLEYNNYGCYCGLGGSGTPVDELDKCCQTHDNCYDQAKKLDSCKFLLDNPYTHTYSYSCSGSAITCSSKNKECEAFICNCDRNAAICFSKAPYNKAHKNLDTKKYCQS
Sequence of Disintegrin and metalloproteinase domain-containing protein 17 (P78536 whole entry, the tested form may be a part): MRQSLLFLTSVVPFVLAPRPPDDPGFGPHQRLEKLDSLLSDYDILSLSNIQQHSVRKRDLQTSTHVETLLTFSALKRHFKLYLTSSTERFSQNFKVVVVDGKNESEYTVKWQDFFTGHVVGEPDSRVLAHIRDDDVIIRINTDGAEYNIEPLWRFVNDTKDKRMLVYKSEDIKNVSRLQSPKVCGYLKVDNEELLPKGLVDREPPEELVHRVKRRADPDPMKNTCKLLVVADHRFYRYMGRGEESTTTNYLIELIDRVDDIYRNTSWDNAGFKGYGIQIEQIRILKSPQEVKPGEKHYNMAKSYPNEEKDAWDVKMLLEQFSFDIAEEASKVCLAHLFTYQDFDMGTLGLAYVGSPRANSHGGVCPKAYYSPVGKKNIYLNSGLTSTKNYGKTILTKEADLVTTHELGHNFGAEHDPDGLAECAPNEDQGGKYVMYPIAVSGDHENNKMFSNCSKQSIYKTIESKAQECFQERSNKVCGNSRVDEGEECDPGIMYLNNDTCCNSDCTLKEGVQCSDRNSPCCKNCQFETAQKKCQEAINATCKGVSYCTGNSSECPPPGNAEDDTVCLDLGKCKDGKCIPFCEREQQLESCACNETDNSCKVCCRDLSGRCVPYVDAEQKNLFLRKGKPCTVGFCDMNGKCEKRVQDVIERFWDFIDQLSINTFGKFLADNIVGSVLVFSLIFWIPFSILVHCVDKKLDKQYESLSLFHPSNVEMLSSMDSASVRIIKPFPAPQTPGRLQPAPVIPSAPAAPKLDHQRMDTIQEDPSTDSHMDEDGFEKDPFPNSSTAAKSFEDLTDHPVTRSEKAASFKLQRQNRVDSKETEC

COc1ccc(/C=C/C(=O)c2cc(Br)ccc(=O)c2O)cc1
AC50 [1]: 4.22 µM (active)

O=C(Oc1c(-c2ccccc2)c(=O)n2c3c(cccc13)CC2)c1ccc(F)cc1
IC50 (Cysteine protease ATG4B): 14.1 µM (active)
IC50 (Phospholipase A2): 10.9 µM (active)

CC(C)C(Sc1nc(-c2ccccc2)cc(-c2ccccc2)c1C#N)C(=O)O (stereo not given)
EC50 [2]: 26.8 µM (active)
EC50 [3]: 2.61 µM (active)
IC50 [4]: 6.76 µM (active)
EC50 (Streptococcus): 9.19 µM (active)
IC50 (Cysteine protease ATG4B): 11.3 µM (active)
EC50 [5]: 7.77 µM (active)
IC50 [6]: > 20 µM (inactive)
EC50 (Streptokinase A): 10.1 µM (active)
EC50 [7]: 35.7 µM (active)
IC50 (Phospholipase A2): 9.87 µM (active)

COc1ccc(-c2n[nH]c(C(F)(F)F)c2-c2cc3ccccc3o2)c(O)c1
IC50 [8]: > 100 µM (not active)
IC50 (Cysteine protease ATG4B): 9.42 µM (active)
IC50 [9]: > 69.5 µM (inactive)
IC50 (Phospholipase A2): 7.64 µM (active)

COCOc1ccc(OC)cc1
GI50 (P388): > 100 µM (inactive)
GI50 (P388/ADR): > 100 µM (inactive)
GI50 (SN12K1): > 100 µM (inactive)

Reference: ChEMBL document CHEMBL1201862, “PubChem BioAssay data set” (2004)
